From ChEMBL document CHEMBL2380214, “Novel hybrids of (phenylsulfonyl)furoxan and anilinopyrimidine as potent and selective epidermal growth factor receptor inhibitors for intervention of non-small-cell lung cancer” (J Med Chem, 2013)
Active and inactive are the calls of the source. The calls are words filed in the database; no cut-off is given here.

Key:
A-431 = assay: cells; format: ADME, cell-based; conditions: Homo sapiens, A-431, 72 h
Description: Cytotoxicity against human A431 cells overexpressing wild type EGFR assessed as growth inhibition after 72 hrs by MTT assay

[1] = target: Epidermal growth factor receptor (Homo sapiens, UniProt P00533)
Chain of Epidermal growth factor receptor (Homo sapiens, UniProt P00533) (P00533 whole entry): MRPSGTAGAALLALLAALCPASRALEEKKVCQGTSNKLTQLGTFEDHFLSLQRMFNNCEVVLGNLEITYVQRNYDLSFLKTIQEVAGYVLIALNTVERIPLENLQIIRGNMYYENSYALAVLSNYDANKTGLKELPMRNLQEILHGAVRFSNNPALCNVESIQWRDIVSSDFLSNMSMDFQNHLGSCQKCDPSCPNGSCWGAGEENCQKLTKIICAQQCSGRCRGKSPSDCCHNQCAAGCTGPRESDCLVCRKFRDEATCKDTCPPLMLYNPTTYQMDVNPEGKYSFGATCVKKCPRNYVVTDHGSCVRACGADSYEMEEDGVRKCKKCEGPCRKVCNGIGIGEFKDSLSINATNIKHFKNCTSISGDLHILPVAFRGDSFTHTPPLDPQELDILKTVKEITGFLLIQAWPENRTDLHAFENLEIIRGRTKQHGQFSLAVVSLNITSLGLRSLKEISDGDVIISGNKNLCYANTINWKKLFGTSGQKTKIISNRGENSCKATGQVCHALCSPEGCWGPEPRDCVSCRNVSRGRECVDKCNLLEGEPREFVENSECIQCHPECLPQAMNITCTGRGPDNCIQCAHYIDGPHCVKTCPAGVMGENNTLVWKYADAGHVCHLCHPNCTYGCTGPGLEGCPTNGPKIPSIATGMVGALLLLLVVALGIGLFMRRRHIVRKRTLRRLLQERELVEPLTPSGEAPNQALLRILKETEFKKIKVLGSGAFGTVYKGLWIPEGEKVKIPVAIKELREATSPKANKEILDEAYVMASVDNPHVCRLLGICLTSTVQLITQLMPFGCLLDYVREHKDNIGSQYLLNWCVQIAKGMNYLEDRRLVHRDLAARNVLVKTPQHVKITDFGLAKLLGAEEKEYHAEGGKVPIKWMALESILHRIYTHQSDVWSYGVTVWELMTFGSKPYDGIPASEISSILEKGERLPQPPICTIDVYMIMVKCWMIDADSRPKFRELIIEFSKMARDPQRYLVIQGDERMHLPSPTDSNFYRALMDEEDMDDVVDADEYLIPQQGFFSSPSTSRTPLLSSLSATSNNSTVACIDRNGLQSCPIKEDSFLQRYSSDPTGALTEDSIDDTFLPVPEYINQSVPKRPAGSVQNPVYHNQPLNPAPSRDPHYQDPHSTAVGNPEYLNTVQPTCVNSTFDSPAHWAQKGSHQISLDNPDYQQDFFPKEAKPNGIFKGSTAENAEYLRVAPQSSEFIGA
Description: Inhibition of wild type EGFR (unknown origin) after 1.5 hrs by FRET-based Z'Lyte assay

[2] = target: Epidermal growth factor receptor (Homo sapiens, UniProt P00533, L858R); format: protein assay
Chain of Epidermal growth factor receptor (Homo sapiens, UniProt P00533, L858R) (P00533 25-1210 L858R limits assumed): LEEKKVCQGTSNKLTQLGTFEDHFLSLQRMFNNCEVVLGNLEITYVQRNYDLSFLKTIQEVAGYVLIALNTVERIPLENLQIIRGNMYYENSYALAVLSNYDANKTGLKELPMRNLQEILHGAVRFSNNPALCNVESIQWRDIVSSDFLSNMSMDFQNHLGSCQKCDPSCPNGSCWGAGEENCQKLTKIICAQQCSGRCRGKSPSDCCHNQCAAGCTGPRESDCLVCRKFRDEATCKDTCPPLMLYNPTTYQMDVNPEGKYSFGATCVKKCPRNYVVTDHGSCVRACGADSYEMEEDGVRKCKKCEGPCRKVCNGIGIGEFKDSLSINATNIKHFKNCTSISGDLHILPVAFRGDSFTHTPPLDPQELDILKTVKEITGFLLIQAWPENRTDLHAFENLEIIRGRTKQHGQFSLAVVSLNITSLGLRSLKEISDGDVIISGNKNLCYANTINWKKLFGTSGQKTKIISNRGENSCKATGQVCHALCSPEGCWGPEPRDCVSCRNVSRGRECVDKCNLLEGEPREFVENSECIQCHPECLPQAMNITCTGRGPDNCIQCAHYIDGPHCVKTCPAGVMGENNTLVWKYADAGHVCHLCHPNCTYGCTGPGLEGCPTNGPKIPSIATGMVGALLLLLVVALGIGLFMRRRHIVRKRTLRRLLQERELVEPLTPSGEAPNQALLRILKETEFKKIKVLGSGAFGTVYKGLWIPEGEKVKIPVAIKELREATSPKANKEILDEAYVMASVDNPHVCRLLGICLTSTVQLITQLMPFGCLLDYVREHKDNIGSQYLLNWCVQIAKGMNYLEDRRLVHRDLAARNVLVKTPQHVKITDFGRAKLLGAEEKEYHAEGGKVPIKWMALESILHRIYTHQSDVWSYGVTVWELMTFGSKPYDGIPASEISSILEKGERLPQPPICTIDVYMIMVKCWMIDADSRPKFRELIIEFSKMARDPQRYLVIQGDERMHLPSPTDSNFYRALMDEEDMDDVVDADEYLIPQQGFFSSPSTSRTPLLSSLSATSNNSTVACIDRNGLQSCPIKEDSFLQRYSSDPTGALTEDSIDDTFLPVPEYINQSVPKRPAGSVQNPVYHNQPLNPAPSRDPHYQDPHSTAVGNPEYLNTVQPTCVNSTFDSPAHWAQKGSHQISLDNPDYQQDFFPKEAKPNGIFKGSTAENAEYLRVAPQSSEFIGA
Description: Inhibition of EGFR L858R mutant (unknown origin) after 1.5 hrs by FRET-based Z'Lyte assay

NCI-H1975 [3] = assay: Induction of NO production in human NCI-H1975 cells harboring EGFR L858R/[…] double mutant assessed as increase in nitrite level at 100 uM after 150 mins by Griess assay; format: functional, cell-based
cells [4] = format: ADME, cell-based; conditions: Homo sapiens, 16HBE14o-, 72 h
Description: Cytotoxicity against human 16HBE14o- cells harboring wild type EGFR assessed as growth inhibition after 72 hrs by MTT assay

cells [5] = format: ADME, cell-based; conditions: Homo sapiens, BEAS-2B, 72 h
Description: Cytotoxicity against human BEAS2B cells harboring wild type EGFR assessed as growth inhibition after 72 hrs by MTT assay

NCI-H1975 [6] = assay: Cytotoxicity against gefitinib-resistant human NCI-H1975 cells harboring EGFR L858R/[…] double mutant assessed as growth inhibition after 72 hrs by MTT assay; format: functional, cell-based; conditions: NCI-H1975, 72 h
A549 = assay: cells; format: ADME, cell-based; conditions: Homo sapiens, A549, 72 h
Description: Cytotoxicity against human A549 cells harboring wild type EGFR and k-RAS mutation assessed as growth inhibition after 72 hrs by MTT assay

cells [7] = format: functional, cell-based; conditions: Homo sapiens, HCC827, 72 h
[8] = target: Epidermal growth factor receptor (Homo sapiens, UniProt P00533, L858R/T790M); format: protein assay
Chain of Epidermal growth factor receptor (Homo sapiens, UniProt P00533, L858R/T790M) (P00533 25-1210 T790M/L858R limits assumed): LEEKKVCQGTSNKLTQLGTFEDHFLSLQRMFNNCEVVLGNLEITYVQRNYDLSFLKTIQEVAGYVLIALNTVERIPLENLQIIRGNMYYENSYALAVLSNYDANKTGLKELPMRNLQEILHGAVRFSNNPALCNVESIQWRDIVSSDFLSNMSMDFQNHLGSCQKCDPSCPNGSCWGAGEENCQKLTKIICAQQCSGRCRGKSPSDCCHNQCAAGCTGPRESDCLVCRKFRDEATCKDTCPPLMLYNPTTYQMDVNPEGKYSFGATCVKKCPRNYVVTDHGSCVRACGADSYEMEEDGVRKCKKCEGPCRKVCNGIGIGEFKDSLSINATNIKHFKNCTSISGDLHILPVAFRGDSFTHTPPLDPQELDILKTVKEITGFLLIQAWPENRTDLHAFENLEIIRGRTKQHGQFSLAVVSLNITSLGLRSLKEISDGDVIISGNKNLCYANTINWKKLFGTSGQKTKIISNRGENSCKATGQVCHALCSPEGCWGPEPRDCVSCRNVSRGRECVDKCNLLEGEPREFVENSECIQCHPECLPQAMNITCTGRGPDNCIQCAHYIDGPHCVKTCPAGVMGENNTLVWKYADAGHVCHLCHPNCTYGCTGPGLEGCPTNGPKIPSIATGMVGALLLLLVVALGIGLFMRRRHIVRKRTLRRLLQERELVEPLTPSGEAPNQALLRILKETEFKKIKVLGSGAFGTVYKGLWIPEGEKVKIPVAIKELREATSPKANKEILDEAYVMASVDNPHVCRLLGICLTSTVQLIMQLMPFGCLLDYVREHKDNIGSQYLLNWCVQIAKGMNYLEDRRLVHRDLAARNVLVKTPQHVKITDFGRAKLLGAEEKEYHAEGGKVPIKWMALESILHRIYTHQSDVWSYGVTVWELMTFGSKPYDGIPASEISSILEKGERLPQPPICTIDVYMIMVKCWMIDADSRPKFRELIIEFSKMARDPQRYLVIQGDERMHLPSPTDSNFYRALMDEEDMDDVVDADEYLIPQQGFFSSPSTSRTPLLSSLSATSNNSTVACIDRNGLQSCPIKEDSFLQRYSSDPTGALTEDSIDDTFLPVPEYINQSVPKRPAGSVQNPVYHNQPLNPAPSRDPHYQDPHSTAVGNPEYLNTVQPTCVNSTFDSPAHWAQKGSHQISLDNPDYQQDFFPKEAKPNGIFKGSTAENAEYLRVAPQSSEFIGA
Description: Inhibition of EGFR L858R/T790M double mutant (unknown origin) after 1.5 hrs by FRET-based Z'Lyte assay

Row | SMILES | IC50 (A-431) [nM] | IC50 [1] [nM] | IC50 [2] [nM] | Activity (NCI-H1975 [3]) | IC50 (cells [4]) [nM] | IC50 (cells [5]) [nM] | IC50 (NCI-H1975 [6]) [nM] | IC50 (A549) [nM] | IC50 (cells [7]) [nM] | IC50 [8] [nM]
1 | C=CC(=O)Nc1cccc(Oc2nc(Nc3ccc(N4CCN(CC(=O)NCCOc5no[n+]([O-])c5S(=O)(=O)c5ccccc5)CC4)cc3OC)ncc2Cl)c1 | 736 | 51 | 63 | Active | 1550 | 1530 | 2020 | 2260 | 9 | 14
2 | C=CC(=O)Nc1cccc(Oc2nc(Nc3ccc(N4CCN(CC(=O)N5CCN(CCOc6no[n+]([O-])c6S(=O)(=O)c6ccccc6)CC5)CC4)cc3OC)ncc2Cl)c1 | 609 | 39 | 40 | Active | 1480 | 1890 | 311 | 2120 | 291 | 6
3 | C=CC(=O)Nc1cccc(Oc2nc(Nc3ccc(N4CCN(CC(=O)OCC#CCOc5no[n+]([O-])c5S(=O)(=O)c5ccccc5)CC4)cc3OC)ncc2Cl)c1 | 3500 | 52 | 64 | Active | 2620 | 959 | 43 | 5530 | 10 | 16
4 | C=CC(=O)Nc1cccc(Oc2nc(Nc3ccc(N4CCN(CC(=O)NCCCOc5no[n+]([O-])c5S(=O)(=O)c5ccccc5)CC4)cc3OC)ncc2Cl)c1 | 357 | 59 | 68 |  | 2280 | 2440 | 1030 | 2480 | 21 | 13
5 | C=CC(=O)Nc1cccc(Oc2nc(Nc3ccc(N4CCN(CC(=O)N5CCC(Oc6no[n+]([O-])c6S(=O)(=O)c6ccccc6)CC5)CC4)cc3OC)ncc2Cl)c1 | 701 | 42 | 66 |  | 1800 | 2200 | 855 | 4250 | 33 | 13
6 | C=CC(=O)Nc1cccc(Oc2nc(Nc3ccc(N4CCN(CC(=O)OCCOc5no[n+]([O-])c5S(=O)(=O)c5ccccc5)CC4)cc3OC)ncc2Cl)c1 | 1230 | 59 | 83 |  | 2040 | 1350 | 63 | 2560 | 7 | 17
7 | C=CC(=O)Nc1cccc(Oc2nc(Nc3ccc(N4CCN(CC(=O)OCCOCCOc5no[n+]([O-])c5S(=O)(=O)c5ccccc5)CC4)cc3OC)ncc2Cl)c1 | 3020 | 101 | 113 | Active | 3160 | 2940 | 471 | 4450 | 41 | 30
8 | C=CC(=O)Nc1cccc(Oc2nc(Nc3ccc(N4CCN(CC(=O)OCCCOc5no[n+]([O-])c5S(=O)(=O)c5ccccc5)CC4)cc3OC)ncc2Cl)c1 | 1060 | 99 | 98 |  | 2580 | 2980 | 396 | 2930 | 22 | 23
9 | O=S(=O)(c1ccccc1)c1c(OCCCCCCO)no[n+]1[O-] | 3380 |  |  | Active | 3400 | 1240 | 5930 | 23600 | 4290 | 
10 | C=CC(=O)Nc1cccc(Oc2nc(Nc3ccc(N4CCN(CC(=O)NCC(C)Oc5no[n+]([O-])c5S(=O)(=O)c5ccccc5)CC4)cc3OC)ncc2Cl)c1 (centres undefined) | 660 | 73 | 99 | Active | 1850 | 988 | 245 | 1790 | 38 | 20
11 | C=CC(=O)Nc1cccc(Oc2nc(Nc3ccc(N4CCN(CC(=O)OCC)CC4)cc3OC)ncc2Cl)c1 | > 10000 |  |  |  | 707 | > 50000 | 1510 | 1450 | 100 | 
